# Measurements: ChEMBL document CHEMBL3507680, “University of Dundee, Gates Library screen for HepG2 cell viability”
# Assay: Human HepG2 cell viability assay in 384 well format
# Assay type: toxicity, cell-based
# Design: dose 125 nL, time 70.5 hour; cytotoxicity at 70.5 h: concentration not given beside the values
# Conditions: HepG2 cells, read-out: Inhibition
row,SMILES,cytotoxicity at 70.5 h
1,Cc1ccc(-c2nc(CN3CCC(C(=O)N(C)C)CC3)cs2)o1,9.92%
2,CC(=O)NCCCSC1CCCN(c2ccccc2Cl)C1=O (stereo not drawn),-15.3%
3,Cn1cc(C2CCCN2C(=O)CCCOCc2ccccc2)cn1 (stereo not drawn),4.25%
4,O=C(O)C(c1ccc2c(c1)OCO2)N1CCCC1 (stereo not drawn),-0.492%
5,CN(C)[C@@H]1CCN(C(=O)c2ccsc2)[C@H]1Cc1cnn(C)c1,-14.4%
6,COc1nccc(N2CC[C@@H](N3CCN(C)CC3)[C@H](O)C2)c1C#N,-6.47%
7,CSCCC(NC(N)=O)C(=O)NCc1cnn(-c2ccccc2)c1 (stereo not drawn),8.76%
8,COc1cc(CCC(=O)NCC2CCCN2C)ccc1OCC(F)(F)F (stereo not drawn),-7.43%
9,N#Cc1c(F)cccc1N1CCCC(C(=O)Nc2nccs2)C1 (stereo not drawn),-19.5%
10,CC(C)CNC(=O)c1ccc2c(c1)nc1n2CCN(Cc2ccco2)C1,-0.527%
11,Cc1cc(C(C)(O)CNC(=O)CCOCC(C)C)c(C)o1 (stereo not drawn),0.738%
12,O=c1c2cccnc2ccn1Cc1nccn1C1CC1,-10.2%
13,CN(CC(F)F)C(=O)c1cn(-c2ccc(Br)cc2)cn1,3.66%
14,NS(=O)(=O)CC1CCCN1CCOc1ccccc1F (stereo not drawn),-12.4%
15,Cc1nccc(-c2ccccc2)c1C(=O)N1CCC2(CN(C)C(=O)O2)C1 (stereo not drawn),-5.07%
16,CN(CC1CCCCO1)S(=O)(=O)c1cccc(C(=O)N2CCOCC2)c1 (stereo not drawn),-10.5%
17,Cc1csc2c(C3CCN(CCCOc4ccccc4)CC3)nc(C)n12,-0.478%
18,Cc1nc(CN2CCOC3(CCCN(c4nccs4)C3)C2)cs1 (stereo not drawn),4.12%
19,Cn1cccc1-c1cc(C(=O)N2CCCC2c2ccc(C(N)=O)s2)[nH]n1 (stereo not drawn),-2.9%
20,Cn1cnc(S(=O)(=O)N2CCO[C@H]3[C@H](OCC4CC4)CC[C@@H]32)c1,-2.37%
21,CC(C)[C@@H]1CN(Cc2ccsc2)C[C@H]1NS(=O)(=O)N(C)C,1.27%
22,CNc1cc(C)nc(C2COCCN2Cc2csc(C)n2)n1 (stereo not drawn),-9.53%
23,CNC(=O)c1cnn2c(C3CCCN3C)ccnc12 (stereo not drawn),12.8%

row,SMILES,cytotoxicity at 70.5 h
1,CC(=O)N1CC(c2ncn(C(C)C)n2)c2cc(C(=O)NC3CC3)ccc21 (stereo not drawn),14.1%
2,CCc1ccc(CN2CCC3(CCCN(C(=O)c4cnccn4)C3)C2)o1 (stereo not drawn),2.89%
3,Cc1ccc(N2CCC3(CCN(C(=O)c4ccoc4)CC3)CC2)nn1,-4.56%
4,O=C(NCc1ccccn1)Nc1ccc2[nH]nnc2c1,-4.24%
5,Cc1noc(CN2CCN(C(=O)c3ccccn3)CC2)n1,-8.75%
6,CCOC(=O)C1CCN(c2cc(C(=O)N3CCOCC3)nc(C)n2)CC1,0.918%
7,Cc1nc(CN2C(=O)CC[C@@H]3[C@H]2CCN3C(=O)C2CCCO2)cs1 (stereo partly drawn),-8.01%
8,O=c1c2ccccc2ncn1Cc1cc(C2CC2)[nH]n1,13.8%
9,CCOCC1CN(C(=O)c2ccco2)Cc2nn(C)cc21 (stereo not drawn),-9.75%
10,COC(=O)c1ncccc1N1CCCCC1,-6.28%
11,CN(C)C(=O)c1ccc(C2CCCN2C(=O)c2ccccc2N(C)C)s1 (stereo not drawn),-1.33%
12,Cc1cc(OCC(=O)NS(=O)(=O)c2cccnc2)ccc1Cl,-2.82%
13,OCC1CCCN1c1cc(NCCNc2ccccn2)ncn1 (stereo not drawn),0.758%
14,CCC(CN1CCCCC1)NC(=O)C1(c2cccc(F)c2)CC1 (stereo not drawn),-8.99%
15,CCN1CC(C(=O)N2CCN(CCn3cccc3)CC2)CC1=O (stereo not drawn),18.1%
16,CC(=O)N1CCC1c1nc(-c2ccc(C)s2)no1 (stereo not drawn),23.5%
17,CNc1cc(N2CCCC2CNCc2cccnc2)ncn1 (stereo not drawn),4.98%
18,c1cnc(Nc2cncc(C3CCCN(c4ncccn4)C3)n2)nc1 (stereo not drawn),-7.66%
19,CC(C)N(CC(C)(C)O)C(=O)NC1CC1,20.8%
20,COc1cc(N2CC[C@@H]3O[C@@H](c4ccnc(C)n4)C[C@H]3C2)ncn1,-4.55%
21,CNC(=O)[C@@]12CCO[C@@H]1CCN(Cc1c(C)noc1C)C2,-6.35%
22,CC1CCN(C(=O)CSc2nc3c(cnn3CCO)c(=O)[nH]2)CC1,22.7%
23,Cc1nnc([C@@]23CCO[C@@H]2CCN(Cc2nccs2)C3)o1,-9.1%

row,SMILES,cytotoxicity at 70.5 h
1,Cc1cc(NC(=O)CNC(C)(C)c2ccc3c(c2)OCO3)on1,-2.77%
2,Cc1nnc(CNC(C)c2cc(C)c(F)c(C)c2)s1 (stereo not drawn),-5.2%
3,CN(C)C(=O)Cn1c(C2CC2)c(CN2CCOCC2)c2cccnc21,-1.8%
4,CC(=O)c1cccc(CN2CCCC23CCN(c2ccccn2)CC3)c1,-4.38%
5,CC(C)N1CCC(Cc2cc(-c3cccc(C(=O)O)c3)ncn2)CC1,-4.63%
6,CCN(CC)CCCNCc1cc2cc(C)ccc2[nH]c1=O,7.87%
7,CN(Cc1cccc(F)c1)S(=O)(=O)N1CCOCC1,-3.2%
8,CCOCC(=O)NCCCn1ccnc1-c1ccccc1,-7.22%
9,CCn1nnc2c1CCN(C(=O)c1ccc3c(c1)OCO3)C2COC (stereo not drawn),10.7%
10,COc1cccc(CN2C[C@@H](F)[C@@H](OCc3nc4cnccc4[nH]3)C2)c1,2.35%
11,Cc1ccc(-c2ncc(C(=O)NCCS(N)(=O)=O)s2)c(C)c1,-1.3%
12,N#CC(Sc1nnnn1C1CCOCC1)C1CCCCC1 (stereo not drawn),-3.62%
13,Cc1ccccc1S(=O)(=O)N(C)[C@@H]1CC[C@@H](n2ccnc2C)[C@@H]1O,53.4%
14,COc1ccc(CN(Cc2cncn2C)CC2CCCO2)c(OC)c1 (stereo not drawn),4.29%
15,CCCS(=O)(=O)N1CCC2(CC1)CC(Nc1ncccn1)CO2 (stereo not drawn),-99.6%
16,CN(C)C(=O)CN1CCN(C(=O)C2CSc3ccccc3O2)CC1 (stereo not drawn),-16.2%
17,CCC(=O)NC1CCCN(Cc2ccc(NC(C)=O)cc2)C1 (stereo not drawn),-4.65%
18,O=C(c1cccnc1)N1CCc2ncnc(C3CCOC3)c2CC1 (stereo not drawn),-7.71%
19,CCCc1nc(NCCCOC)c2c(n1)c(C)nn2CC,18.7%
20,CCOC(=O)CN(C)C1CCc2ccccc21 (stereo not drawn),26.7%
21,CCNc1ncc2c(n1)CN(c1ccc(OC(F)(F)F)cc1)C2=O,-15.6%
22,N#Cc1cccc(CN2CC[C@@H]3[C@@H]2CC(=O)N3Cc2cccnc2)c1,-18.9%
23,COc1ccc([C@@H]2CN(C(=O)CCCc3cn[nH]c3)C[C@H]2N(C)C)cc1,9.02%

row,SMILES,cytotoxicity at 70.5 h
1,O=C(CCCNC(=O)Nc1ccc(F)cc1F)Nc1cn[nH]c1,-5.08%
2,COCC(=O)Nc1cc(Br)cnc1OCC(F)(F)F,-11.8%
3,Cc1cc(CNc2cc(Cl)ccc2Cl)no1,-14.1%
4,O=C1CC2(CCCCN2C(=O)c2ccccc2)CN1CC1CC1 (stereo not drawn),4.75%
5,CC(=O)NCCC1CCCCN1S(=O)(=O)c1ccc2ccccc2c1 (stereo not drawn),4.83%
6,Cc1ccc(CN(CCN(C)C)C(=O)Nc2ccc(C)c(C#N)c2)s1,1.83%
7,CN(Cc1ccsc1)C(=O)c1ccc(C2CCCO2)s1 (stereo not drawn),30.9%
8,Cc1cc(N(C)CCOc2ccccc2F)nc(N)n1,-2.43%
9,CN(C)CC(=O)N1CCc2onc(Cn3cccn3)c2C1,-9.72%
10,CC(C)(C)C(O)CN1CCN(CCOCC(F)(F)F)CC1 (stereo not drawn),-9.97%
11,COc1cccc2c1OCC(C(=O)N1CCSCC1)C2 (stereo not drawn),-8.37%
12,CC1N(CC2CC2)C(=O)COC12CCN(Cc1nccs1)CC2 (stereo not drawn),-8.15%
13,COC1CCN(c2ccc(F)cc2CN(C)C(=O)c2cc[nH]n2)CC1,-13.3%
14,CCCn1c(C)c(CC(=O)NCCOC)c2c1CC(C)(C)CC2=O,-0.0334%
15,CNC(=O)CN1CCOCC2(C1)CN(C(=O)C(C)C)CCO2 (stereo not drawn),-9.58%
16,Cc1cnn(CC2CCN(CC(O)c3ccc(F)cc3)CC2)c1 (stereo not drawn),-0.648%
17,COCCOc1nc(-c2ccccc2Cl)no1,-78.8%
18,Cc1cc(N2CCc3cncnc3C2)n2nc(C(F)(F)F)nc2n1,-104%
19,COc1cc(NC(=O)c2ccc(C)cc2C)c(C(=O)N(C)C)cc1OC,4.46%
20,CCN1CCO[C@@H]2CN(S(=O)(=O)c3cccs3)CC[C@@H]2C1,-6.19%
21,COc1cc(C(=O)NCC2(N(C)C)CCN(C)CC2)c2ccccc2n1,0.627%
22,Cc1ccccc1C(=O)N1CCC2(CCC(C(=O)NCC3CC3)O2)CC1 (stereo not drawn),-18.9%
23,O=C(NCc1cccnc1)N1CCC2(CC(=O)N(c3ccsc3)C2)C1 (stereo not drawn),-6.34%

row,SMILES,cytotoxicity at 70.5 h
1,O=C(Cc1cccnc1)N1CCC(OCc2ccccc2)CC1,-11.4%
2,O=C1CC2(CCN(C(=O)c3ccncc3)CC2)Oc2c(Cl)cc(Cl)cc21,-5.1%
3,CCOC(=O)c1cccc(N2CCCC3(CCC(=O)N(C4CC4)C3)C2)n1 (stereo not drawn),-2.93%
4,O=C(Nc1cccc(C(=O)OCC2CCCN2)c1)c1ccoc1 (stereo not drawn),5.78%
5,Cc1nc(CN2CCN(C(C)c3nc(C(C)C)no3)CC2)oc1C (stereo not drawn),-0.487%
6,COc1cc(N2C[C@@H]3COC[C@]3(COc3cccnc3)C2)ncn1,-5%
7,CC(NC(=O)COc1ccc(Cl)cc1Cl)c1nncn1C(C)C (stereo not drawn),-3.07%
8,O=C(NCCc1csc(-c2cccnc2)n1)c1cnn2c1CCCC2,-7.57%
9,N#CC1(C(=O)N2CCC(Nc3cccnn3)CC2)CCCCC1,0.814%
10,Cc1oncc1C(=O)N1CCC2(CCN(Cc3cccc(F)c3)C2=O)C1 (stereo not drawn),-2.01%
11,Cc1cc(N2CCC(CC(N)=O)CC2)nc(-c2ccncc2)n1,-6.56%
12,CC(C)C(NC(=O)Cn1ccc(=O)n(C)c1=O)c1ccc(F)cc1 (stereo not drawn),-13.2%
13,Cc1ncsc1C(=O)NCCNc1ncccc1C#N,-8.88%
14,CC(C)CCN1Cc2c(C(=O)N3CCCC3)nn(C)c2C1,15%
15,CCc1nnc2n1CCN(C(=O)c1csc(-c3cnn(C)c3)n1)C2,-6.07%
16,O=C(C1CCOCC1)N1CCO[C@@H]2[C@@H](OCc3ccncc3)CC[C@@H]21,-22.7%
17,O=C(NC1CCS(=O)(=O)C1)c1cn(C2CC2)c(=O)c2ccccc12 (stereo not drawn),-14.3%
18,Cc1ccc(-c2noc(CN3CCc4cncnc4C3)n2)cc1,11.6%
19,CC(C)C(=O)Nc1ccc(Sc2nncn2C)c(Cl)c1,-16%
20,Cc1noc(CCCC(=O)Nc2ncccc2Br)n1,-7.59%
21,Cc1cccc(CC2CCCN(C(=O)C3CCOCC3)C2)n1 (stereo not drawn),-8.54%
